test system: HCI-024 (organoid from a breast cancer xenograft); assay: CTG-3D luminescence at 96 h relative to day-0 seeding control (ratio to day 0); higher = more growth / less cytotoxicity; PDxO 3D drug screen, 96 h, CTG-3D normalised to day-0 seeding control.; settings: 12.5 pM; days in culture: 122

Row | Compound | CTG-3D luminescence at 96 h
1 | CN(Cc1cnc2nc(N)nc(N)c2n1)c1ccc(C(=O)N[C@@H](CCC(=O)O)C(=O)O)cc1 [methotrexate] | 1.69
2 | C=CCn1c(=O)c2cnc(Nc3ccc(N4CCN(C)CC4)cc3)nc2n1-c1cccc(C(C)(C)O)n1 [adavosertib] | 1.86
3 | CC(C)(C(=O)NCC(F)(F)C(F)(F)F)C(=O)N[C@@H]1C(=O)Nc2ccccc2-c2ccccc21 | 2.28
4 | C[C@@H]1COCCN1c1cc(C2([S@](C)(=N)=O)CC2)nc(-c2cc[nH]c3nccc2-3)n1 [ceralasertib] | 2.12
5 | CCN1CCN(Cc2ccc(Nc3ncc(F)c(-c4cc(F)c5nc(C)n(C(C)C)c5c4)n3)nc2)CC1 [abemaciclib] | 2.26

same assay, conditions: 12.5 pM; days in culture: 163

Row | Compound | CTG-3D luminescence at 96 h
6 | COc1cccc2c1C(=O)c1c(O)c3c(c(O)c1C2=O)C[C@@](O)(C(=O)CO)C[C@@H]3O[C@H]1C[C@H](N)[C@H](O)[C@H](C)O1 [doxorubicin] | 1.43
7 | O=C(O)C1(C(=O)O)CCC1.[NH2-].[NH2-].[Pt+2] [carboplatin] | 2.01
8 | NC(=O)Nc1cc(-c2cccc(F)c2)sc1C(=O)N[C@H]1CCCNC1 [AZD7762] | 1.95
9 | Nc1ccn([C@@H]2O[C@H](CO)[C@@H](O)C2(F)F)c(=O)n1 [gemcitabine] | 1.49
10 | CC1(C)CCC(c2ccc(Cl)cc2)=C(CN2CCN(c3ccc(C(=O)NS(=O)(=O)c4ccc(N[C@H](CCN5CCOCC5)CSc5ccccc5)c(S(=O)(=O)C(F)(F)F)c4)cc3)CC2)C1 [navitoclax] | 1.88
11 | CN(Cc1cnc2nc(N)nc(N)c2n1)c1ccc(C(=O)N[C@@H](CCC(=O)O)C(=O)O)cc1 [methotrexate] | 1.9
12 | C=CCn1c(=O)c2cnc(Nc3ccc(N4CCN(C)CC4)cc3)nc2n1-c1cccc(C(C)(C)O)n1 [adavosertib] | 2.11
13 | CC(C)(C(=O)NCC(F)(F)C(F)(F)F)C(=O)N[C@@H]1C(=O)Nc2ccccc2-c2ccccc21 | 2.14
14 | C[C@@H]1COCCN1c1cc(C2([S@](C)(=N)=O)CC2)nc(-c2cc[nH]c3nccc2-3)n1 [ceralasertib] | 1.95
15 | CCN1CCN(Cc2ccc(Nc3ncc(F)c(-c4cc(F)c5nc(C)n(C(C)C)c5c4)n3)nc2)CC1 [abemaciclib] | 1.45

same assay, conditions: 0.00025 µM; days in culture: 105

Row | Compound | CTG-3D luminescence at 96 h
16 | COc1cccc2c1C(=O)c1c(O)c3c(c(O)c1C2=O)C[C@@](O)(C(=O)CO)C[C@@H]3O[C@H]1C[C@H](N)[C@H](O)[C@H](C)O1 [doxorubicin] | 1.64
17 | O=C(O)C1(C(=O)O)CCC1.[NH2-].[NH2-].[Pt+2] [carboplatin] | 1.54
18 | NC(=O)Nc1cc(-c2cccc(F)c2)sc1C(=O)N[C@H]1CCCNC1 [AZD7762] | 1.48
19 | Nc1ccn([C@@H]2O[C@H](CO)[C@@H](O)C2(F)F)c(=O)n1 [gemcitabine] | 1.57
20 | CC1(C)CCC(c2ccc(Cl)cc2)=C(CN2CCN(c3ccc(C(=O)NS(=O)(=O)c4ccc(N[C@H](CCN5CCOCC5)CSc5ccccc5)c(S(=O)(=O)C(F)(F)F)c4)cc3)CC2)C1 [navitoclax] | 1.51
21 | CN(Cc1cnc2nc(N)nc(N)c2n1)c1ccc(C(=O)N[C@@H](CCC(=O)O)C(=O)O)cc1 [methotrexate] | 1.49
22 | C=CCn1c(=O)c2cnc(Nc3ccc(N4CCN(C)CC4)cc3)nc2n1-c1cccc(C(C)(C)O)n1 [adavosertib] | 1.66
23 | CC(C)(C(=O)NCC(F)(F)C(F)(F)F)C(=O)N[C@@H]1C(=O)Nc2ccccc2-c2ccccc21 | 1.33
24 | C[C@@H]1COCCN1c1cc(C2([S@](C)(=N)=O)CC2)nc(-c2cc[nH]c3nccc2-3)n1 [ceralasertib] | 1.61
25 | CCN1CCN(Cc2ccc(Nc3ncc(F)c(-c4cc(F)c5nc(C)n(C(C)C)c5c4)n3)nc2)CC1 [abemaciclib] | 1.33

same assay, conditions: 0.00025 µM; days in culture: 122

Row | Compound | CTG-3D luminescence at 96 h
26 | COc1cccc2c1C(=O)c1c(O)c3c(c(O)c1C2=O)C[C@@](O)(C(=O)CO)C[C@@H]3O[C@H]1C[C@H](N)[C@H](O)[C@H](C)O1 [doxorubicin] | 2.32
27 | O=C(O)C1(C(=O)O)CCC1.[NH2-].[NH2-].[Pt+2] [carboplatin] | 1.95
28 | NC(=O)Nc1cc(-c2cccc(F)c2)sc1C(=O)N[C@H]1CCCNC1 [AZD7762] | 2.38
29 | Nc1ccn([C@@H]2O[C@H](CO)[C@@H](O)C2(F)F)c(=O)n1 [gemcitabine] | 2.2
30 | CC1(C)CCC(c2ccc(Cl)cc2)=C(CN2CCN(c3ccc(C(=O)NS(=O)(=O)c4ccc(N[C@H](CCN5CCOCC5)CSc5ccccc5)c(S(=O)(=O)C(F)(F)F)c4)cc3)CC2)C1 [navitoclax] | 2.32
31 | CN(Cc1cnc2nc(N)nc(N)c2n1)c1ccc(C(=O)N[C@@H](CCC(=O)O)C(=O)O)cc1 [methotrexate] | 2.22
32 | C=CCn1c(=O)c2cnc(Nc3ccc(N4CCN(C)CC4)cc3)nc2n1-c1cccc(C(C)(C)O)n1 [adavosertib] | 2.07
33 | CC(C)(C(=O)NCC(F)(F)C(F)(F)F)C(=O)N[C@@H]1C(=O)Nc2ccccc2-c2ccccc21 | 1.94
34 | C[C@@H]1COCCN1c1cc(C2([S@](C)(=N)=O)CC2)nc(-c2cc[nH]c3nccc2-3)n1 [ceralasertib] | 2.11
35 | CCN1CCN(Cc2ccc(Nc3ncc(F)c(-c4cc(F)c5nc(C)n(C(C)C)c5c4)n3)nc2)CC1 [abemaciclib] | 2.43

same assay, conditions: 0.00025 µM; days in culture: 163

Row | Compound | CTG-3D luminescence at 96 h
36 | COc1cccc2c1C(=O)c1c(O)c3c(c(O)c1C2=O)C[C@@](O)(C(=O)CO)C[C@@H]3O[C@H]1C[C@H](N)[C@H](O)[C@H](C)O1 [doxorubicin] | 2.44
37 | O=C(O)C1(C(=O)O)CCC1.[NH2-].[NH2-].[Pt+2] [carboplatin] | 2.27
